Source: patent US20120282377A1, “Methods and Formulations for Inhibiting Degradation of Photosensitive Sweeteners and Sweetener Enhancers” (priority 2011, published 2012)

Key:
[1] = Stability of monatin in lemon lime matrix under visible light (Example 2); assay type: physicochemical
Description: (§1) High-potency sweetener monatin was evaluated for stability to sunlight exposure when formulated into a beverage packaged in PET packaging (bottle) with and without a UV barrier or in a dark-colored PET packaging. This study was designed to evaluate the stability of RR stereoisomer of monatin under normal visible light and under ultraviolet light in the Atlas sun-test chamber using normal PET bottles, PET packaging with a UV barrier and dark PET packaging. For this purpose monatin solution was made in a lemon lime carbonated beverage matrix without any flavor added.
(§2) The RR isomer of monatin was used for the present study after satisfactory HPLC and LC-MS data analyses confirmed that this sample greater than 95% pure. A lemon lime beverage matrix without flavor was used as the matrix base. The concentration of monatin in the matrix was 30 ppm.
(§3) Due to lack of any RR-monatin standard, its stereoisomer, SS-monatin was used for HPLC calibration curve preparation as it appears at the same retention time as RR-monatin.
(§4) Quantitative analysis of monatin via UV detection in LC-MS was done for all the samples. The methodology employed a 12% acetonitrile (solvent A) in 50 mM ammonium formate (pH 4.0, solvent B) for 5 min followed by a linear gradient to 34% acetonitrile over 5 min; Detection: UV @278 nm].
(§5) 1) regular PET bottles, 300 mL or 8 Oz (bottle type A). 2) PET bottles with a UV barrier, 600 mL or 16 Oz, fresh un-used bottle* (bottle type B). * It was shown that the UV barrier capacity decreased after one use in the commercially bought 20 Oz PET bottles with a UV barrier (See the UV scan data in FIG. 1). 3) dark-colored PET bottles (bottle type C). UV light source: Atlas Sun-test chamber. Under program 1 of sun-test chamber, 6 hr of exposure is equal to one day of sun-light exposure in Arizona or 400 Langley at 40° C. Control Experiment: UV irradiation by using only a lemon lime matrix (no monatin added) in regular PET bottles and running the sun-test chamber for four days equivalent exposure was carried out. The purpose of this experiment was to make sure no artifact arises from lemon lime matrix in the monatin absorption region. No new signals were identified. 13 bottles were used in the monatin-lemon-lime matrix experiments: 1 regular PET at zero time and 3 regular PET bottles; 2 PET bottles with a UV barrier bottles and 7 dark-colored PET bottles. Zero time sample protocol: 330 mL PET bottle was filled up to ⅓^rd full, flushed with nitrogen, covered with foil and then kept at 4° C. Sample aliquot protocol: 5 mL was taken out in a 20 mL opaque glass scintillation vial. Both vial and experimental bottle were flushed with nitrogen. The vial was covered with foil and kept at 4° C.
(§6) LC-MS analysis was carried out on all the samples in the same day as their maturation. A new monatin calibration curve was made every day with the SS-monatin sample.
For these experiments, visible light is the normal laboratory light which was left on all the time during the experiment.

[2] = Stability of monatin in lemon lime matrix under ultraviolet light, Atlas sun-test chamber (Example 2); assay type: physicochemical; conditions: for monatin sample degraded: four days equivalent of ultraviolet light exposure (24 hours in UV chamber)
Description: as §1, §2, §3, §4, §5, §6
For these experiments samples were kept in the Atlas sun-test chamber where each 6 hr exposure was equivalent to one day of sun exposure in Arizona (400 Langley). […] In particular, it was noted that under UV light in regular PET, monatin degrades by 70% in just one day's exposure.

[3] = Visual analysis of UV and light exposed monatin samples by 6 panelists; assay type: physicochemical; parameters: key: (+) = colorless; (−) = color change (color noted); conditions: 30 PPM in lemon lime matrix pH 3.35, panelists 1-6
Description: A survey of odor and visual analysis of the UV and light exposed samples of the monatin samples was conducted by 6 panelists. Samples for analysis were solution of monatin in a lemon lime matrix without flavor at pH 3.35 (30 PPM monatin) exposed to visible for three days or UV light for 24 hours (equivalent of four days sun exposure).

[4] = Monatin stability in PET bottle types with or without additives, 1600 Langley UV exposure (Example 5); assay type: physicochemical; conditions: 1600 Langley (24 hour at 40° C.); for Monatin remaining after UV exposure (ppm): control 43.3 ppm
Description: The stability of monatin in regular PET bottles, PET bottles with UV barrier (colorless or green) and with or without Chinese Green Tea polyphenol or α-cyclodextrin was evaluated. Each sample was irradiated with an irradiation energy of 1600 Langley exposure (24 hour exposure at 40° C. in Atlas SunTest XLS+chamber, which was equivalent to four day of sun exposure in Arizona). A control formulation was used that contained monatin at 43.3 ppm. The results were analyzed by LC-MS.

[5] = cited from earlier work
[6] = 0 hours of exposure in UV chamber
[7] = 6 hours of exposure in UV chamber
[8] = 12 hours of exposure in UV chamber
[9] = 18 hours of exposure in UV chamber
[10] = 24 hours of exposure in UV chamber
[11] = Green PET with UV barrier (0.12%), additives none
[12] = PET with UV barrier, Chinese Green Tea Polyphenol TP>40 (149 ppm)
[13] = PET with UV barrier, additives none
[14] = PET with UV barrier, α-cyclodextrin (729 ppm)

SMILES: NC(CC(O)(Cc1c[nH]c2ccccc12)C(=O)O)C(=O)O (centres unmarked) [Monatin, 2-amino-4-carboxy-4-hydroxy-5-(3-indolyl)-pentanoic acid]
- degrades upon exposure to visible light ([1]; lemon-lime matrix, any of the three types of bottles, visible light for up to 74 hours): less than 10%
- Conc. in mg/L RR-Monatin in Lemon Lime matrix UV barrier PET Bottle (600 mL) ([1]; visible light 0 hours): 31.1 mg/L
- Conc. in mg/L RR-Monatin in Lemon Lime matrix in Normal PET Bottle (330 mL) ([1]; visible light 0 hours): 31.1 mg/L
- Conc. in mg/L RR-Monatin in Lemon Lime matrix in dark-colored PET Bottle (75 mL) ([1]; visible light 0 hours): 31.1 mg/L
- Conc. in mg/L RR-Monatin in Lemon Lime matrix UV barrier PET Bottle (600 mL) ([1]; visible light 5 hours): 30.9 mg/L
- Conc. in mg/L RR-Monatin in Lemon Lime matrix in Normal PET Bottle (330 mL) ([1]; visible light 5 hours): 31.0 mg/L
- Conc. in mg/L RR-Monatin in Lemon Lime matrix in dark-colored PET Bottle (75 mL) ([1]; visible light 5 hours): 30.9 mg/L
- Conc. in mg/L RR-Monatin in Lemon Lime matrix UV barrier PET Bottle (600 mL) ([1]; visible light 8 hours): 30.4 mg/L
- Conc. in mg/L RR-Monatin in Lemon Lime matrix in Normal PET Bottle (330 mL) ([1]; visible light 8 hours): 30.4 mg/L
- Conc. in mg/L RR-Monatin in Lemon Lime matrix in dark-colored PET Bottle (75 mL) ([1]; visible light 8 hours): 30.4 mg/L
- Conc. in mg/L RR-Monatin in Lemon Lime matrix UV barrier PET Bottle (600 mL) ([1]; visible light 26 hours): 29.8 mg/L
- Conc. in mg/L RR-Monatin in Lemon Lime matrix in Normal PET Bottle (330 mL) ([1]; visible light 26 hours): 29.7 mg/L
- Conc. in mg/L RR-Monatin in Lemon Lime matrix in dark-colored PET Bottle (75 mL) ([1]; visible light 26 hours): 29.9 mg/L
- Conc. in mg/L RR-Monatin in Lemon Lime matrix UV barrier PET Bottle (600 mL) ([1]; visible light 31 hours): 29.5 mg/L
- Conc. in mg/L RR-Monatin in Lemon Lime matrix in Normal PET Bottle (330 mL) ([1]; visible light 31 hours): 29.7 mg/L
- Conc. in mg/L RR-Monatin in Lemon Lime matrix in dark-colored PET Bottle (75 mL) ([1]; visible light 31 hours): 29.7 mg/L
- Conc. in mg/L RR-Monatin in Lemon Lime matrix UV barrier PET Bottle (600 mL) ([1]; visible light 49 hours): 28.9 mg/L
- Conc. in mg/L RR-Monatin in Lemon Lime matrix in Normal PET Bottle (330 mL) ([1]; visible light 49 hours): 29.2 mg/L
- Conc. in mg/L RR-Monatin in Lemon Lime matrix in dark-colored PET Bottle (75 mL) ([1]; visible light 49 hours): 29.3 mg/L
- Conc. in mg/L RR-Monatin in Lemon Lime matrix UV barrier PET Bottle (600 mL) ([1]; visible light 56 hours): 29.2 mg/L
- Conc. in mg/L RR-Monatin in Lemon Lime matrix in Normal PET Bottle (330 mL) ([1]; visible light 56 hours): 29.1 mg/L
- Conc. in mg/L RR-Monatin in Lemon Lime matrix in dark-colored PET Bottle (75 mL) ([1]; visible light 56 hours): 29.2 mg/L
- Conc. in mg/L RR-Monatin in Lemon Lime matrix UV barrier PET Bottle (600 mL) ([1]; visible light 74 hours): 28.7 mg/L
- Conc. in mg/L RR-Monatin in Lemon Lime matrix in Normal PET Bottle (330 mL) ([1]; visible light 74 hours): 28.8 mg/L
- Conc. in mg/L RR-Monatin in Lemon Lime matrix in dark-colored PET Bottle (75 mL) ([1]; visible light 74 hours): 28.9 mg/L
- Conc. in mg/L RR-Monatin in Lemon Lime matrix in Normal PET Bottle (330 mL) [2, 6]: 31.1 mg/L
- Conc. in mg/L RR-Monatin in Lemon Lime matrix in UV barrier PET Bottle (600 mL) [2, 6]: 31.1 mg/L
- Conc. in mg/L RR-Monatin in Lemon Lime matrix in dark-colored PET Bottle (75 mL) [2, 6]: 31.1 mg/L
- Conc. in mg/L RR-Monatin in Lemon Lime matrix in Normal PET Bottle (330 mL) [2, 7]: 9.0 mg/L
- Conc. in mg/L RR-Monatin in Lemon Lime matrix in UV barrier PET Bottle (600 mL) [2, 7]: 27.6 mg/L
- Conc. in mg/L RR-Monatin in Lemon Lime matrix in dark-colored PET Bottle (75 mL) [2, 7]: 29.2 mg/L
- Conc. in mg/L RR-Monatin in Lemon Lime matrix in Normal PET Bottle (330 mL) [2, 8]: 2.1 mg/L
- Conc. in mg/L RR-Monatin in Lemon Lime matrix in UV barrier PET Bottle (600 mL) [2, 8]: 22.4 mg/L
- Conc. in mg/L RR-Monatin in Lemon Lime matrix in dark-colored PET Bottle (75 mL) [2, 8]: 29.1 mg/L
- Conc. in mg/L RR-Monatin in Lemon Lime matrix in Normal PET Bottle (330 mL) [2, 9]: 0.3 mg/L
- Conc. in mg/L RR-Monatin in Lemon Lime matrix in UV barrier PET Bottle (600 mL) [2, 9]: 9.8 mg/L
- Conc. in mg/L RR-Monatin in Lemon Lime matrix in dark-colored PET Bottle (75 mL) [2, 9]: 29.0 mg/L
- Conc. in mg/L RR-Monatin in Lemon Lime matrix in Normal PET Bottle (330 mL) [2, 10]: 0.0 mg/L
- Conc. in mg/L RR-Monatin in Lemon Lime matrix in UV barrier PET Bottle (600 mL) [2, 10]: 3.6 mg/L
- Conc. in mg/L RR-Monatin in Lemon Lime matrix in dark-colored PET Bottle (75 mL) [2, 10]: 28.6 mg/L
- degradation upon exposure to UV light ([2]; Regular PET bottles and PET with UV barrier bottles): did not prevent degradation of monatin
- monatin sample degraded ([2]; UV barrier PET bottle): ~90%
- monatin degrades ([2]; UV light, regular PET, one day's exposure): 70%
- monatin sample degraded ([2]; dark-colored PET bottle): less than 10%
- degradation, UV light versus visible light ([2]; lemon-lime matrix): degrade faster upon UV light exposure than upon visible light exposure
- degradation upon exposure to UV light ([2]; monatin solution in dark-colored PET bottles): prevented most of the monatin from degrading
- monatin sample degraded ([2]; normal PET bottle): all of the monatin sample in the normal PET bottle had degraded
- Visual analysis ([3]; PET with UV barrier, UV light 24 hours): −
- Visual analysis ([3]; PET with UV barrier, visible light three days): +
- Visual analysis ([3]; Regular PET, UV light 24 hours): −
- Visual analysis ([3]; Regular PET, visible light three days): +
- Monatin remaining after UV exposure (%) [4, 11]: 65.6%
- Monatin remaining after UV exposure (ppm) [4, 11]: 28.4 ppm
- Monatin remaining after UV exposure (%) [4, 12]: 77.6%
- Monatin remaining after UV exposure (ppm) [4, 12]: 33.6 ppm
- Monatin remaining after UV exposure (%) [4, 13]: 51.0%
- Monatin remaining after UV exposure (ppm) [4, 13]: 22.1 ppm
- Monatin remaining after UV exposure (%) [4, 14]: 33.3%
- Monatin remaining after UV exposure (ppm) [4, 14]: 14.4 ppm
- Monatin remaining after UV exposure (%) ([4]; Regular PET, additives none): 13.4%
- Monatin remaining after UV exposure (ppm) ([4]; Regular PET, additives none): 5.8 ppm
- degradation when exposed to UV light [5]: degrade to malodorous degradation products
